Where a name gives a salt, the structure may show the parent alone. Read-outs that look alike come from different tables or passages of the source.
Target: T1, BACE1 enzyme (soluble, truncated BACE enzyme, BACE1deltaTM96His) (Homo sapiens, UniProt P56817)
T1 construct: soluble, truncated BACE enzyme (BACE1deltaTM96His); His; made in house
Experiment: BACE1 Fluorescent Polarization (FP) Assay
Format: biochemical
Settings: geometric mean of 2-4 IC50 determinations unless footnoted (^2: 5-6 determinations; ^4: single determination)
Source text: BACE1 Fluorescent Polarization (FP) Assay
The fluorescently tagged synthetic substrate, Biotin-GLTNIKTEEISEISŶEVEFR-C[oregon green]KK-OH can be efficiently cleaved by the beta-secretase enzyme and is therefore useful to assay beta-secretase activity in the presence or absence of inhibitory compounds. The his tagged BACE1 enzyme was affinity purified material from conditioned media of CHO-K1 cells that had been transfected to express soluble, truncated BACE enzyme (BACE1deltaTM96His). Compounds were incubated in a ½ log dose response (from a top concentration of 100 μM) with BACE1 enzyme (0.1 nM final) and the biotinylated fluorescent peptide substrate (150 nM final) in assay buffer containing 100 mM sodium acetate, pH 4.5 (brought to pH with acetic acid), and 0.001% Tween-20. Total reaction volumes of 30 μL were carried out in 384-well black plates (Thermo Scientific 4318). Plates were covered and incubated for 3 hours at 37° C. The reactions were then stopped by addition of 30 μL of 1.5 μM Streptavidin (Pierce, 21125). After a 10 minute incubation at room temperature, plates were read on a PerkinElmer Envision for fluorescence polarization (Ex485 nm/Em530 nm). The activity of the beta-secretase enzyme is detected by changes in the fluorescence polarization (Δ mP) that occur when the substrate is cleaved by the enzyme.

[1] = 11-point curve, read-out: BACE activity, 11-point curve, IC50
[2] = 8-point curve, read-out: BACE activity, 8-point curve, IC50

T1 sequence (P56817 46-457): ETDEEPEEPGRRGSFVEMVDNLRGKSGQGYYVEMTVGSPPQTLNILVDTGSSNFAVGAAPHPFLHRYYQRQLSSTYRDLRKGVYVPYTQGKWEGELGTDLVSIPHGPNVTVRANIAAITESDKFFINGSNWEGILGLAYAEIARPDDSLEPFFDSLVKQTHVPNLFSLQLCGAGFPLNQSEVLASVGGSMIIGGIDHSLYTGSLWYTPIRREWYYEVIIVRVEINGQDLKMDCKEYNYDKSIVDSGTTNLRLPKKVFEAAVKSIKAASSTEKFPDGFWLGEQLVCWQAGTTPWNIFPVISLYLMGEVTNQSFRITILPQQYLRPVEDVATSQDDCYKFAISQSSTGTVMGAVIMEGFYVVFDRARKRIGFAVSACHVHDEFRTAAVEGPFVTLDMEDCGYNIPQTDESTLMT

| SMILES | IC50 [1] [nM] | IC50 [2] [nM] |
| --- | --- | --- |
| CC(C)Cc1ncoc1CN1CC[C@]2(CC(C)S(=O)(=O)N2c2cccc(F)c2)C[C@@H]1C (mixture of isomers) [Example 2, (5R,7S)-1-(3-Fluorophenyl)-8-[(4-isobutyl-1,3-oxazol-5-yl)methyl]-3,7-dimethyl-2-thia-1,8-diazaspiro[4.5]decane 2,2-dioxide, formate salt] | 4440 |  |
| C[C@H]1C[C@@]2(C=CS(=O)(=O)N2c2cccc(F)c2)CCN1Cc1ccc(O)c(C2CCCO2)c1 (mixture of isomers) [Example 11, 4-{[(5R,7S)-1-(3-fluorophenyl)-7-methyl-2,2-dioxido-2-thia-1,8-diazaspiro[4.5]dec-3-en-8-yl]methyl}-2-(tetrahydrofuran-2-yl)phenol] |  | 53.3 |
| C[C@H]1C[C@]2(CCN1Cc1ccc(O)c(C3CCCO3)c1)CCS(=O)(=O)N2c1cccc(F)c1 (mixture of isomers) [Example 61, 4-{[(5R,7S)-1-(3-fluorophenyl)-7-methyl-2,2-dioxido-2-thia-1,8-diazaspiro[4.5]dec-8-yl]methyl}-2-(tetrahydrofuran-2-yl)phenol] |  | < 30.5 |
| C[C@H]1C[C@]2(CCN1Cc1ncoc1C1CCCO1)CCS(=O)(=O)N2c1cccc(F)c1 (mixture of isomers) [Example 80, (5R,7S)-1-(3-fluorophenyl)-7-methyl-8-{[5-(tetrahydrofuran-2-yl)-1,3-oxazol-4-yl]methyl}-2-thia-1,8-diazaspiro[4.5]decane 2,2-dioxide] | 6460 |  |
| C[C@H]1CCO[C@H]1c1ocnc1CN1CC[C@]2(C=CS(=O)(=O)N2c2cccc(F)c2)C[C@@H]1C (relative stereo) [Example 69, (5R,7S)-1-(3-fluorophenyl)-7-methy1-8-({5-[cis-3-methyltetrahydrofuran-2-yl]-1,3-oxazol-4-yl}methyl)-2-thia-1,8-diazaspiro[4.5]dec-3-ene 2,2-dioxide] | 7070 |  |
| C[C@H]1C[C@@]2(C=CS(=O)(=O)N2c2cccc(F)c2)CCN1Cc1ccc(O)c(C2CCCO2)c1 (single isomer, unassigned) [Example 30] |  | 208 |
| C[C@H]1C[C@@]2(C=CS(=O)(=O)N2c2cccc(F)c2)CCN1Cc1ccc(O)c(C2CCCO2)c1 (single isomer, unassigned) [Example 31] | 62.6 | 10.5 |
| C[C@H]1C[C@]2(CCN1Cc1ccc(O)c(C3CCCO3)c1)CCS(=O)(=O)N2c1cccc(F)c1 (single isomer, unassigned) [Example 46] | 3010 | 866 |
| C[C@H]1C[C@]2(CCN1Cc1ccc(O)c(C3CCCO3)c1)CCS(=O)(=O)N2c1cccc(F)c1 (single isomer, unassigned) [Example 47] | 249 | 47.1 |
| CC(C)Oc1cc(CN2CC[C@]3(CCS(=O)(=O)N3c3cccc(F)c3)C[C@@H]2C)ccc1O [Example 1, 4-{[(5R,7S)-1-(3-Fluorophenyl)-7-methyl-2,2-dioxido-2-thia-1,8-diazaspiro[4.5]dec-8-yl]methyl}-2-isopropoxyphenol] |  | 35 |
| CC(C)Oc1cc(CN2CC[C@]3(CCS(=O)(=O)N3c3cccc(F)c3)C[C@@H]2C)ncc1O [Example 3, 6-{[(5R,7S)-1-(3-Fluorophenyl)-7-methyl-2,2-dioxido-2-thia-1,8-diazaspiro[4.5]dec-8-yl]methyl}-4-isopropoxypyridin-3-ol] | 613 | 81.5 |
| Cc1ccsc1-c1cc(CN2CC[C@]3(C=CS(=O)(=O)N3c3cccc(F)c3)C[C@@H]2C)ccc1O [Example 5, 4-{[(5R,7S)-1-(3-fluorophenyl)-7-methyl-2,2-dioxido-2-thia-1,8-diazaspiro[4.5]dec-3-en-8-yl]methyl}-2-(3-methyl-2-thienyl)phenol, hydrochloride salt] |  | 0.731 |
| CCc1ccccc1-c1cc(CN2CC[C@]3(C=CS(=O)(=O)N3c3cccc(F)c3)C[C@@H]2C)ccc1O [Example 6, 2′-ethyl-5-{[(5R,7S)-1-(3-fluorophenyl)-7-methyl-2,2-dioxido-2-thia-1,8-diazaspiro[4.5]dec-3-en-8-yl]methyl}biphenyl-2-ol] |  | < 4.2 |
| C[C@H]1C[C@@]2(C=CS(=O)(=O)N2c2cccc(F)c2)CCN1Cc1ccc(O)c(C2CCCC2)c1 [Example 7, 2-cyclopentyl-4-{[(5R,7S)-1-(3-fluorophenyl)-7-methyl-2,2-dioxido-2-thia-1,8-diazaspiro[4.5]dec-3-en-8-yl]methyl}phenol] |  | 21.9 |
| CCc1ccccc1-c1cc(CN2CC[C@]3(CCS(=O)(=O)N3c3cccc(F)c3)C[C@@H]2C)ccc1O [Example 8, 2′-ethyl-5-{[(5R,7S)-1-(3-fluorophenyl)-7-methyl-2,2-dioxido-2-thia-1,8-diazaspiro[4.5]dec-8-yl]methyl}biphenyl-2-ol] |  | 124 |
| CC(C)Oc1cc(CN2CC[C@]3(C=CS(=O)(=O)N3c3cccc(F)c3)C[C@@H]2C)ccc1O [Example 9, 4-{[(5R,7S)-1-(3-ftuorophenyl)-7-methyl-2,2-dioxido-2-thia-1,8-diazaspiro[4.5]dec-3-en-8-yl]methyl}-2-isopropoxyphenol] | 77.9 | 23.5 |
| C[C@H]1C[C@@]2(C=CS(=O)(=O)N2c2cccc(F)c2)CCN1Cc1ccc(O)c(OC(F)(F)F)c1 [Example 10, 4-{[(5R,7S)-1-(3-fluorophenyl)-7-methyl-2,2-dioxido-2-thia-1,8-diazaspiro[4.5]dec-3-en-8-yl]methyl}-2-(trifluoromethoxy)phenol, hydrochloride salt] |  | 181 |
| CC(C)Cc1ocnc1CN1CC[C@]2(C=CS(=O)(=O)N2c2cccc(F)c2)C[C@@H]1C [Example 12, (5R,7S)-1-(3-fluorophenyl)-8-[(5-isobutyl-1,3-oxazol-4-yl)methyl]-7-methyl-2-thia-1,8-diazaspiro[4.5]dec-3-ene 2,2-dioxide] |  | 338 |
| C[C@H]1C[C@@]2(C=CS(=O)(=O)N2c2cccc(F)c2)CCN1Cc1ccc(O)c(OC2CC2)c1 [Example 13, 2-(cyclopropyloxy)-4-{[(5R,7S)-1-(3-fluorophenyl)-7-methyl-2,2-dioxido-2-thia-1,8-diazaspiro[4.5]dec-3-en-8-yl]methyl}phenol, hydrochloride salt] |  | 18.4 |
| C[C@H]1C[C@@]2(C=CS(=O)(=O)N2c2cccc(F)c2)CCN1Cc1ccc(O)c(OC2CC2)c1 [Example 14, 2-(cyclopropyloxy)-4-{[(5R,7S)-1-(3-fluorophenyl)-7-methyl-2,2-dioxido-2-thia-1,8-diazaspiro[4.5]dec-3-en-8-yl]methyl}phenol] |  | 42.5 |
| C[C@H]1C[C@@]2(C=CS(=O)(=O)N2c2cccc(F)c2)CCN1Cc1ccc(O)c(Cl)c1 [Example 15, 2-chloro-4-{[(5R,7S)-1-(3-fluorophenyl}-7-methyl-2,2-dioxido-2-thia-1,8-diazaspiro[4.5]dec-3-en-8-yl]methyl}phenol, hydrochloride salt] | 478 | 754 |
| C[C@H]1C[C@@]2(C=CS(=O)(=O)N2c2cccc(F)c2)CCN1Cc1ccc(O)c(C(F)(F)F)c1 [Example 16, 4-{[(5R,7S)-1-(3-fluorophenyl)-7-methyl-2,2-dioxido-2-thia-1,8-diazaspiro[4.5]dec-3-en-8-yl]methyl}-2-(trifluoromethyl)phenol, hydrochloride salt] |  | 322 |
| CC(C)Oc1cccc(CN2CC[C@]3(C=CS(=O)(=O)N3c3cccc(F)c3)C[C@@H]2C)c1 [Example 17, (5R,7S)-1-(3-fluorophenyl)-8-(3-isopropoxybenzyl)-7-methyl-2-thia-1,8-diazaspiro[4.5]dec-3-ene 2,2-dioxide] | 908 | 84.9 |
| C[C@H]1C[C@@]2(C=CS(=O)(=O)N2c2cccc(F)c2)CCN1Cc1ccc(O)c(F)c1 [Example 18, 2-fluoro-4-{[(5R,7S)-1-(3-fluorophenyl)-7-methyl-2,2-dioxido-2-thia-1,8-diazaspiro[4.5]dec-3-en-8-yl]methyl}phenol, hydrochloride salt] |  | 1.86 |
| C[C@H]1C[C@@]2(C=CS(=O)(=O)N2c2cccc(F)c2)CCN1Cc1scnc1CC1CCC1 [Example 19, (5R,7S)-8-{[4-(cyclobutylmethyl)-1,3-thiazol-5-yl]methyl}-1-(3-fluorophenyl)-7-methyl-2-thia-1,8-diazaspiro[4.5]dec-3-ene 2,2-dioxide] |  | 310 |
| C[C@H]1C[C@@]2(C=CS(=O)(=O)N2c2cccc(F)c2)CCN1Cc1ncoc1-c1cccnc1 [Example 22, (5R,7S)-1-(3-fluorophenyl)-7-methyl-8-[(5-pyridin-3-yl-1,3-oxazol-4-yl)methyl]-2-thia-1,8-diazaspiro[4.5]dec-3-ene 2,2-dioxide, hydrochloride salt] |  | 414 |
| C[C@H]1C[C@@]2(C=CS(=O)(=O)N2c2cccc(F)c2)CCN1Cc1ncoc1-c1cncnc1 [Example 23, (5R,7S)-1-(3-fluorophenyl)-7-methyl-8-[(5-pyrimidin-5-yl-1,3-oxazol-4-yl)methyl]-2-thia-1,8-diazaspiro[4.5]dec-3-ene 2,2-dioxide, hydrochloride salt] | 1450 | 428 |
